Measured values as given in ChEMBL document CHEMBL1201862, “PubChem BioAssay data set” (2004).
Where a name gives a salt, the structure may show the parent alone.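 Briefly, cells in 96-well plates were exposed to five compound concentrations for 48 h, and endpoints were estimated by linear interpolation. GI50 marks 50% less growth.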 Calls of active or inactive are those of the source. No stated cut-off is given here; in the data, active = GI50 up to about 1.1 µM and inactive = higher.

Assays:
Assay in all cases: NCI tumour cell line growth inhibition, 48 h
LXFL 529 = test system: LXFL 529
KM-20L2 = test system: KM-20L2
DMS-273 = test system: DMS-273
DMS-114 = test system: DMS-114
XF498 = test system: XF498
M19-MEL = test system: M19-MEL
DLD-1 = test system: DLD-1
SNB-78 = test system: SNB-78
RXF 631 = test system: RXF 631

Row | Structure (SMILES) | GI50 (LXFL 529) | GI50 (KM-20L2) | GI50 (DMS-273) | GI50 (DMS-114) | GI50 (XF498) | GI50 (M19-MEL) | GI50 (DLD-1) | GI50 (SNB-78) | GI50 (RXF 631)
1 | NCCCCNCCCNC(=O)c1nc(-c2csc(CCN)n2)sc1Cl | 17.9 µM (inactive) | > 100 µM (inactive) | > 100 µM (inactive) | > 100 µM (inactive) | > 100 µM (inactive) | > 100 µM (inactive) | > 100 µM (inactive) | > 100 µM (inactive) | 
2 | CCCCc1nccc2c(C)c3[nH]c4ccccc4c3cc12 |  | 2.86 µM (inactive) | 0.883 µM (active) | 1.59 µM (inactive) |  | 3.1 µM (inactive) | 2.81 µM (inactive) | 5.64 µM (inactive) | 
3 | N#CC(C#N)SCc1ccccc1 | 33.7 µM (inactive) | 32.3 µM (inactive) | 39.2 µM (inactive) | 24.4 µM (inactive) |  | 54.1 µM (inactive) | 36.6 µM (inactive) | 33 µM (inactive) | 
4 | COC(=O)C1=C(C[S+]([O-])c2ccccc2[N+](=O)[O-])ON(C)C1c1ccccc1 (stereo not given) | 42 µM (inactive) | 21.5 µM (inactive) | 28.1 µM (inactive) | 24.7 µM (inactive) | 31.1 µM (inactive) | 47 µM (inactive) | 30.9 µM (inactive) | 82 µM (inactive) | 
5 | O=C(CCc1nnc2s/c(=C\c3ccccc3Cl)c(=O)n12)Nc1cc(Cl)ccc1Cl | > 100 µM (inactive) |  |  | > 100 µM (inactive) | 70.8 µM (inactive) | > 100 µM (inactive) | > 100 µM (inactive) | > 100 µM (inactive) | 
6 | CC1CC(c2ccc(Cl)c(Cl)c2)=Nc2ccccc2S1 (stereo not given) | > 100 µM (inactive) | > 100 µM (inactive) | > 100 µM (inactive) | > 100 µM (inactive) | > 100 µM (inactive) | > 100 µM (inactive) | > 100 µM (inactive) | > 100 µM (inactive) | 
7 | C[n+]1c2ccccc2c(NC(CCCNC(=N)N)C(=O)O)c2ccccc21 (stereo not given) | > 100 µM (inactive) | > 100 µM (inactive) | > 100 µM (inactive) | > 100 µM (inactive) | > 100 µM (inactive) | > 100 µM (inactive) | > 100 µM (inactive) | > 100 µM (inactive) | 
8 | [O-]/N=[N+](/[O-])C1CCCCC1=[N+]1CCOCC1 (stereo not given) | > 100 µM (inactive) |  |  | > 100 µM (inactive) | 0.157 µM (active) | > 100 µM (inactive) |  | > 100 µM (inactive) | 
9 | CN1c2ccccc2N(C)C23N(C)c4ccccc4N(C)C12N(C)c1ccccc1N3C (stereo not given) |  | > 100 µM (inactive) | > 100 µM (inactive) | > 100 µM (inactive) | 49.1 µM (inactive) | > 100 µM (inactive) | > 100 µM (inactive) |  | > 100 µM (inactive)
10 | CC(C)OP(=O)(OC(C)C)/C(=N/Nc1ccc([N+](=O)[O-])cc1)NN | 41.5 µM (inactive) | > 100 µM (inactive) | > 100 µM (inactive) | 61.1 µM (inactive) | 68.9 µM (inactive) | > 100 µM (inactive) | > 100 µM (inactive) | > 100 µM (inactive) | 
11 | O=C1C(Cl)=C(Cl)C(=O)N1C1C2CC3CC(C2)CC1C3 (stereo not given) | 47.5 µM (inactive) | > 100 µM (inactive) | > 100 µM (inactive) | > 100 µM (inactive) | > 100 µM (inactive) | > 100 µM (inactive) | > 60.1 µM (inactive) | > 100 µM (inactive) | 
12 | O=C1OC(c2ccccc2)=N/C1=C/NC(Cc1c[nH]c2ccccc12)C(=O)O (stereo not given) | > 100 µM (inactive) | > 100 µM (inactive) | > 100 µM (inactive) | > 100 µM (inactive) | > 100 µM (inactive) | > 100 µM (inactive) | > 100 µM (inactive) | > 100 µM (inactive) | 
13 | Cc1ccc(C2C(Cl)C(=O)N2NC(=O)c2ccc(N)cc2)cc1 (stereo not given) | 15.5 µM (inactive) | 23.8 µM (inactive) | 2.46 µM (inactive) | 10.2 µM (inactive) | 13.3 µM (inactive) | 19.8 µM (inactive) | 20.5 µM (inactive) | 5.46 µM (inactive) | 
14 | O=C1c2ccccc2C(=O)c2nc3c(O)cccc3cc21 | 4.57 µM (inactive) | 26.7 µM (inactive) | 6.61 µM (inactive) | 3.81 µM (inactive) |  | 2.12 µM (inactive) | 9.75 µM (inactive) |  | 36.2 µM (inactive)
15 | CN1CCc2cc(O)c3cc2C1Cc1ccc(cc1)Oc1cc(ccc1O)CC1c2c(cc4c(c2O3)OCO4)CCN1C (stereo not given) |  | 18.2 µM (inactive) | 24.8 µM (inactive) | 18.2 µM (inactive) | 14.4 µM (inactive) |  | 75.3 µM (inactive) | > 100 µM (inactive) | 
16 | Cc1ccc(NCC2(/N=C/c3ccccc3)OC(CO)C(O)C2O)cc1 (stereo not given) | 77.6 µM (inactive) | 20.8 µM (inactive) | 31.2 µM (inactive) | 40 µM (inactive) | > 100 µM (inactive) |  | 72.4 µM (inactive) |  | 
17 | CC(=O)c1sc(Nc2nnc(-c3ccc(-c4nnc(Nc5nc(C)c(C(C)=O)s5)o4)cc3)o2)nc1C | > 100 µM (inactive) | > 100 µM (inactive) | > 100 µM (inactive) | > 100 µM (inactive) |  |  | > 100 µM (inactive) | > 100 µM (inactive) | 
18 | O=C(CC1(O)C(=O)Nc2ccc(Br)cc21)c1cccc([N+](=O)[O-])c1 (stereo not given) | 22.5 µM (inactive) | 74.6 µM (inactive) | 45.8 µM (inactive) |  |  |  | 34.5 µM (inactive) | 37.8 µM (inactive) | > 100 µM (inactive)
19 | O=C1NC2CCC(C2)C1c1ccccc1 (stereo not given) | > 100 µM (inactive) |  | > 100 µM (inactive) | > 100 µM (inactive) |  | > 100 µM (inactive) | > 100 µM (inactive) | > 100 µM (inactive) | > 100 µM (inactive)
20 | O=S1(=O)C(=C(c2ccccc2)c2ccccc2)S(=O)(=O)c2ccccc21 |  | > 100 µM (inactive) | > 100 µM (inactive) | 65.3 µM (inactive) | 24.7 µM (inactive) | > 100 µM (inactive) | > 100 µM (inactive) | 39.8 µM (inactive) | 
21 | O=C(O)C1c2ccccc2C(C(=O)O)c2ccccc21 (stereo not given) | > 100 µM (inactive) | > 100 µM (inactive) | > 100 µM (inactive) | > 100 µM (inactive) |  | > 100 µM (inactive) | > 100 µM (inactive) | > 100 µM (inactive) | 
22 | O=C(c1cc2ccccc2[nH]1)C(O)(c1cc2ccccc2[nH]1)c1cc2ccccc2[nH]1 | > 246 µM (inactive) | > 246 µM (inactive) | > 246 µM (inactive) | > 246 µM (inactive) |  |  | > 246 µM (inactive) |  | > 246 µM (inactive)
23 | Nc1ccn(CC(CO)CC(c2ccccc2)P(=O)(O)O)c(=O)n1 (stereo not given) | > 100 µM (inactive) | > 100 µM (inactive) | > 100 µM (inactive) | > 100 µM (inactive) | > 100 µM (inactive) | > 100 µM (inactive) | > 100 µM (inactive) | > 100 µM (inactive) | 
24 | O=c1[nH]c(=O)n([C@H]2CCCO2)cc1F |  | 824 µM (inactive) | 561 µM (inactive) | 673 µM (inactive) | 762 µM (inactive) | 545 µM (inactive) | 615 µM (inactive) | > 1000 µM (inactive) | 
25 | CNNCc1ccc(C(=O)NC(C)C)cc1 [PROCARBAZINE HYDROCHLORIDE] | > 500 µM (inactive) | 380 µM (inactive) | > 500 µM (inactive) |  | > 500 µM (inactive) | > 500 µM (inactive) | > 500 µM (inactive) | > 500 µM (inactive) | 
